Measured values published in ChEMBL document CHEMBL1201862, “PubChem BioAssay data set” (2004).
The source made the active and inactive calls.

Key:
cells [1] = type: functional, cell-based
cells [2] = type: functional, cell-based; remark: listed apart in the source
cells [3] = assay: cells
[4] = cytotoxicity toward NIH3T3 fibroblasts, dose response, counter-screen, cell-based, ATP luminescence, mouse fibroblasts (AID 2010); type: functional;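 also: cells exposed to compound for about 90 hours before reading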
[5] = inhibitors of intracellular T. cruzi replication, confirmation, NIH3T3 host cells, beta-gal luminescence (AID 2044); type: functional, cell-based;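 also: intracellular parasites grown in NIH/3T3 mouse fibroblasts as host cells; luminescent beta-galactosidase reporter signal from transgenic T. cruzi replicating inside host cells; inhibitors lower the luminescence signal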
[6] = molecular target: T1, Calpain-2 catalytic subunit (Sus scrofa, UniProt P43367); assay: pig calpain II inhibitor potency, dose response, biochemical, fluorogenic peptide substrate (AID 1420); type: functional
T1 sequence (P43367 whole entry): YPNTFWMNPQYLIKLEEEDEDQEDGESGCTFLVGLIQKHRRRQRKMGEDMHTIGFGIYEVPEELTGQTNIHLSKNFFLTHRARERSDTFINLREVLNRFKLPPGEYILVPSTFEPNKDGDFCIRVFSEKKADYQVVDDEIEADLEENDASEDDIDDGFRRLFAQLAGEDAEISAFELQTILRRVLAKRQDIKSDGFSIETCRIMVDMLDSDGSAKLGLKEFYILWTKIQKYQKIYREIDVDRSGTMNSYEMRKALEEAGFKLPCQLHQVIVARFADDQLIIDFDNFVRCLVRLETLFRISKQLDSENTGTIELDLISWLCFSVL

[7] = molecular target: T2, Corticotropin-releasing factor receptor 2/Corticotropin-releasing factor-binding protein (Homo sapiens, UniProt P24387+Q13324); assay: Dose Response confirmation of uHTS hits for small molecule antagonists of the CRF-binding protein and CRF-R2 receptor complex.; type: functional; conditions: read-out: IC50_Mean
T2 sequence (Q13324 whole entry): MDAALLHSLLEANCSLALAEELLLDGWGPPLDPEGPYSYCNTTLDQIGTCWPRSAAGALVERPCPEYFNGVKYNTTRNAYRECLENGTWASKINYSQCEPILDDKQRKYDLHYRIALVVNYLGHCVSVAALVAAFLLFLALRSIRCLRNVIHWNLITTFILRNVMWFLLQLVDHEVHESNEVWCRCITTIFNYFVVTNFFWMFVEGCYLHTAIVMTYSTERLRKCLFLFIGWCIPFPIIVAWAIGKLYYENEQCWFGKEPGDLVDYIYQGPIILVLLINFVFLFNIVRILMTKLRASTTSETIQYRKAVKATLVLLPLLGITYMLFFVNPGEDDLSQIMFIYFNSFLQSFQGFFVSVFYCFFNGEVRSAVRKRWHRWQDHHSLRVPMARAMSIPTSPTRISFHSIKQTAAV
T2 sequence (P24387 whole entry): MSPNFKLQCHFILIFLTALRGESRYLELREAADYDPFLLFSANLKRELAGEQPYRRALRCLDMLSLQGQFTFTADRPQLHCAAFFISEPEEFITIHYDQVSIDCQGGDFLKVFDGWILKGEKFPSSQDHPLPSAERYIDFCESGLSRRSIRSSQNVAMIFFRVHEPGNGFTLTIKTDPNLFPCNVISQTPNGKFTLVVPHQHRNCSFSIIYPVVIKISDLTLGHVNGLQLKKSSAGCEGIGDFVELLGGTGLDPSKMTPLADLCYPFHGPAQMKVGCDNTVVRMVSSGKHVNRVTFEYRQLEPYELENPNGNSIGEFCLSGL

[8] = CRF-BP/CRF-R2 complex antagonists, dose response, cell-based, uHTS hits, 384-well (AID 651639); type: functional, Homo sapiens; conditions: read-out: IC50_Mean
[9] = molecular target: T2, Corticotropin-releasing factor receptor 2/Corticotropin-releasing factor-binding protein; assay: activators of CRF receptor 2 with binding protein – uHTS hits, confirmation (AID 602473); type: functional; conditions: read-out: EC50_Mean
[10] = inhibitors of clade B AD8 Env fusion, dose response, cell-based, cherry-pick (AID 652062); type: functional;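 also: luciferase signal from cell-cell fusion driven by HIV-1 clade B AD8 Env; potency is for inhibitors of fusion seen as a drop in luminescence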
[11] = off-target signal loss in HeLa-CEM21 co-culture – HeLa F-luc CTL cells, cherry-picked, counter-screen for HIV-1 Env fusion inhibitor project, dose response (AID 652040); type: functional, cell-based;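 also: potency for signal decrease marking cytotoxic or nonspecific inhibition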
[12] = inhibitors of HIV Env-driven cell fusion, dose response, cherry-pick (AID 652057); type: functional, cell-based
[13] = ZM109 Env clade C HIV-1 fusion inhibitors, dose response, HeLa effector, CEM target cells, luciferase, cherry-pick (AID 652058); type: functional, cell-based
[14] = NIH-3T3 fibroblast cytotoxicity, dose response, cytotoxicity control, cell-based, fluorescence, Alamar Blue, secondary assay (AID 2327); type: functional;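 also: NIH-3T3 mouse fibroblasts cultured with fluconazole at 8 µg/mL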
[15] = C. albicans growth with fluconazole, confirmation, fluorescence, retest (AID 2467); type: functional, cell-based
BJ [16] = assay: cytotoxicity toward BJ-TERT-LT-ST fibroblasts, dose response, cell-based, RAS-independent, luminescence (AID 1935); type: functional; conditions: Homo sapiens;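 also: BJ fibroblasts immortalized with TERT plus LT and ST oncogenes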
BJ [17] = assay: cells; type: functional, cell-based; conditions: Homo sapiens
[18] = cytotoxicity toward DRD oncogenic fibroblasts, dose response, cell-based, non-viral oncogenic, luminescence (AID 1934); type: functional; conditions: Homo sapiens
BJ [19] = assay: cytotoxicity toward BJ-TERT fibroblasts, dose response, cell-based, RAS-independent, luminescence (AID 1933); type: functional; conditions: Homo sapiens
Cytochrome P450 2D6 = Cytochrome P450 2D6 (Homo sapiens, UniProt P10635);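 also: CYP2D6 member of a cytochrome P450 panel assay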
Sequence of Cytochrome P450 2D6 (P10635 whole entry): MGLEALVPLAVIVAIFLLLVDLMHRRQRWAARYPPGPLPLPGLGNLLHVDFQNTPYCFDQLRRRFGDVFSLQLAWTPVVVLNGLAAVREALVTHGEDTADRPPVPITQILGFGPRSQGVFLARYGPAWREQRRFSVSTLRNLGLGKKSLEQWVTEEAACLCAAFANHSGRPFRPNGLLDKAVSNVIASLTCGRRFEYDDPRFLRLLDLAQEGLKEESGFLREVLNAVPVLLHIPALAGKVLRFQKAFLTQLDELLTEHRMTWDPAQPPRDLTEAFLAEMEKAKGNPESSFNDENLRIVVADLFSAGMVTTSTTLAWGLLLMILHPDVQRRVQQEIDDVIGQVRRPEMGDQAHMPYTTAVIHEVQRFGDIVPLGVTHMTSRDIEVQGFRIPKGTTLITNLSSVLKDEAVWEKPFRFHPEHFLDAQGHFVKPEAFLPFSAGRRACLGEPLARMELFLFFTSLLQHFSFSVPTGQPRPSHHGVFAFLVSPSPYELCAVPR

Cytochrome P450 1A2 = molecular target: T3, Cytochrome P450 1A2 (Homo sapiens, UniProt P05177);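 also: PubChem cytochrome P450 panel assay, CYP1A2 panel member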
T3 sequence (P05177 whole entry): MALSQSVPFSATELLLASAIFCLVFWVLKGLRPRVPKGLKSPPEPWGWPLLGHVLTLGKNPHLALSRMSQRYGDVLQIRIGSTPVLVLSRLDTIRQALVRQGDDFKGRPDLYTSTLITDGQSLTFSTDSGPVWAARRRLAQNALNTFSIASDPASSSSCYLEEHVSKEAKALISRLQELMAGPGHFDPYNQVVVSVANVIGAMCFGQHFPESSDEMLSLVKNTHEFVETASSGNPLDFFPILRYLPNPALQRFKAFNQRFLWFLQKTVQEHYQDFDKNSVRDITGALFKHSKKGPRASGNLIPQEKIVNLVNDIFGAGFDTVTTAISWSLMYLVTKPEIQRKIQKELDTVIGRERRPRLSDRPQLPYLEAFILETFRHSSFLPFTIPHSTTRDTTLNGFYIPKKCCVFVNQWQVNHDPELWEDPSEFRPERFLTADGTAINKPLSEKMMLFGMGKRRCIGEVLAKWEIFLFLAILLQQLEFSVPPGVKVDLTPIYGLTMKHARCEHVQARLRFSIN

[20] = molecular target: T4, Serine/threonine-protein phosphatase (Candida dubliniensis (strain CD36 / CBS 7987 / NCPF 3949 / NRRLY-17841) (Yeast), UniProt B9W6M3); assay: calcineurin pathway inhibitors in yeast reporter, dose response, S. cerevisiae, CDRE-lacZ, luminescence, secondary (AID 2388); type: functional, cell-based;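 also: yeast reporter cells carrying a calcineurin-responsive lacZ construct stimulated with calcium chloride; luminescent beta-galactosidase reporter signal in whole cells rather than isolated phosphatase activity; potency for inhibition where a drop in reporter signal means calcineurin blockade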
T4 sequence (B9W6M3 whole entry): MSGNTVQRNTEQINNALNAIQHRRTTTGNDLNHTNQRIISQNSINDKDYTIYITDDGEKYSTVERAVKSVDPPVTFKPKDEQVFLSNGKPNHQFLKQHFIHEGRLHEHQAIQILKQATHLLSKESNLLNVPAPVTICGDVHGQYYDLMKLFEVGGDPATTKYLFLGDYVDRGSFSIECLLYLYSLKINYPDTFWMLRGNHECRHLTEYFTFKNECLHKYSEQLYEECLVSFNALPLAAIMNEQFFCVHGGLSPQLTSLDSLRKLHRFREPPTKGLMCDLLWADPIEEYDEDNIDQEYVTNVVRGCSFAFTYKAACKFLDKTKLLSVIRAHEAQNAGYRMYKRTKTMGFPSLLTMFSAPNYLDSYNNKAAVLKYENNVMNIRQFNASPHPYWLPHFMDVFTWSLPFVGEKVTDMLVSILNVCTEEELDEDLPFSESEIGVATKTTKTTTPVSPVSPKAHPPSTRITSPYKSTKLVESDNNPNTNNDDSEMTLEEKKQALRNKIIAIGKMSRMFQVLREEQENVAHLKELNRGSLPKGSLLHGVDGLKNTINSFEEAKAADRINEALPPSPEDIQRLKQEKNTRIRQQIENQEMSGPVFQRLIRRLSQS

[21] = system: Streptococcus sp. 'group A'; assay: growth inhibition of control SK(-) GAS strain, dose response, counter-screen for streptokinase expression inhibitor project, luminescence, kanamycin, BacTiterGlo, confirmation (AID 1900); type: functional, organism-based
Streptococcus = assay: Group A Streptococcus viability loss, dose response, counter-screen for streptokinase expression inhibitor project, luminescence, BacTiterGlo (AID 1915); type: functional, organism-based;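 also: potency for reduction of bacterial viability or growth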
Leucine aminopeptidase = molecular target: T5, Leucine aminopeptidase (Plasmodium falciparum 3D7, UniProt Q8IL11); assay: P. falciparum M17LAP inhibitors, primary screen, biochemical, fluorogenic H-Leu-NHMec substrate, 1536-well (AID 1619); type: functional
T5 sequence (Q8IL11 whole entry): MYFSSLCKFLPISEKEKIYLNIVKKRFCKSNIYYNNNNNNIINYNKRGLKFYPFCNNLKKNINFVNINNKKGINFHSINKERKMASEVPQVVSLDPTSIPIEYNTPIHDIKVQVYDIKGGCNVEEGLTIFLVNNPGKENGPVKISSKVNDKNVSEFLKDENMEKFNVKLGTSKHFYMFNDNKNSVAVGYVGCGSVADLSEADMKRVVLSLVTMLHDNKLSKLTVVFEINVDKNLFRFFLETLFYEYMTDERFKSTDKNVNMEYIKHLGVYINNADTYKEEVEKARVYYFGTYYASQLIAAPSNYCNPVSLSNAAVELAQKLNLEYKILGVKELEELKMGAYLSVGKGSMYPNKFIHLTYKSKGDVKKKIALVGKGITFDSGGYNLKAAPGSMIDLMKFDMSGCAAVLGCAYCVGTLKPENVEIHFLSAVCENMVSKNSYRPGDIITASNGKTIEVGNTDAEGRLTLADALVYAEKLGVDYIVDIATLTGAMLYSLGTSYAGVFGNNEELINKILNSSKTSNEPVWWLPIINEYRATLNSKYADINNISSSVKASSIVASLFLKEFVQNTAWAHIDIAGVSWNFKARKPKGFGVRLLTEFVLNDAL

[22] = molecular target: ATP-dependent molecular chaperone HSP82 (Candida albicans (strain WO-1) (Yeast), UniProt C4YTQ8); assay: loss of DOC-induced GRE-beta-galactosidase reporter signal, dose response, Hsp90 inhibitor project, S. cerevisiae, luminescence (AID 2400); type: functional, cell-based;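 also: beta-galactosidase luminescence from glucocorticoid response element reporter as proxy for Hsp90 function; inhibitor potency where signal loss means Hsp90 inhibition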
Sequence of ATP-dependent molecular chaperone HSP82 (C4YTQ8 whole entry): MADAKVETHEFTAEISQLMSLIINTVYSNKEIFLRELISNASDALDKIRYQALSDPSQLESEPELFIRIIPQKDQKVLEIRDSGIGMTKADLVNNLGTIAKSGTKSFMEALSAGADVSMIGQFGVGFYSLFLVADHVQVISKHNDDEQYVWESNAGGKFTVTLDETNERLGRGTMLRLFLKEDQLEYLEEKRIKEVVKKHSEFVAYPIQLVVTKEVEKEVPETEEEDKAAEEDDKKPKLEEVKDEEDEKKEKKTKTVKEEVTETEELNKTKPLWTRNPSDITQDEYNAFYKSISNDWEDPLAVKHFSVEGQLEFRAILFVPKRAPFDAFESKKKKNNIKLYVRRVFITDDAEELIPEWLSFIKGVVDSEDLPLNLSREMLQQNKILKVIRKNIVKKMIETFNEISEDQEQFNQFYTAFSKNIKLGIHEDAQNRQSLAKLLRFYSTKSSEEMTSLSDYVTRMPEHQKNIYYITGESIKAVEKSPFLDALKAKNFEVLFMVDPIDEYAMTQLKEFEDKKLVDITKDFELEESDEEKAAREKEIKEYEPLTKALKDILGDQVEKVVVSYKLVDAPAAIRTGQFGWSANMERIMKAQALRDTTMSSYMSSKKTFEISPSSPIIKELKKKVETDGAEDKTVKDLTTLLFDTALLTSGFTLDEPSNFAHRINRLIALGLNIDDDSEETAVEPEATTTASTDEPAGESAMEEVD

Cc1cc(O)nc(SCC(=O)NCCc2ccccc2)n1
IC50 (cells [1]): > 29.9 µM (inactive)
EC50 (cells [2]): > 29.9 µM (inactive)

Cc1ccc(-n2nc3c(=O)n(CC(=O)NCCc4ccccc4C)nc(C)c3c2C)cc1
IC50 (cells [1]): > 29.9 µM (inactive)
EC50 (cells [2]): > 29.9 µM (inactive)

CC(C)Cc1ccc(CN2CCCC(NC(=O)c3nn(C)c(=O)c4ccccc34)C2)cc1 (configuration not stated)
EC50 (cells [3]): 0.021 µM (active)
EC50 [4]: 8.66 µM (active)
EC50 [5]: < 0.1 µM (active)

CC(=O)c1ccc(N2CCN(C(=O)c3cccc(Oc4ccccc4)c3)CC2)cc1
IC50 [6]: 12.3 µM (not active)
IC50 [7]: 2.16 µM (active)
IC50 [8]: 6.67 µM (active)
EC50 [9]: > 53 µM (inactive)

CCN(C1CCCCC1)S(=O)(=O)c1ccc(S(=O)(=O)N(CC(=O)Nc2ccccc2)C2CC2)cc1
AC50 [10]: 7.31 µM (active)
AC50 [11]: 27.9 µM (active)
EC50 [4]: > 60 µM (not active)
AC50 [12]: 4.9 µM (active)
AC50 [13]: 6.25 µM (active)
EC50 [5]: 1.93 µM (active)

CC1CCc2c(sc3ncnc(N4CCOCC4)c23)C1 (configuration not stated)
AC50 [10]: 4.54 µM (active)
AC50 [11]: 20.8 µM (active)
EC50 [14]: > 160 µM (inactive)
AC50 [12]: 22.5 µM (active)
AC50 [13]: 0.858 µM (active)
EC50 [15]: > 38 µM (not active)

COc1ccc(C(=O)/C(C#N)=N/Nc2ccccc2[N+](=O)[O-])cc1
EC50 (BJ [16]): 21.5 µM (inconclusive)
IC50 [7]: 4.66 µM (active)
EC50 (BJ [17]): 19.4 µM (inconclusive)
EC50 [18]: 2.84 µM (active)
EC50 (BJ [19]): 10.7 µM (active)
IC50 [8]: 11 µM (active)
EC50 [9]: > 53 µM (inactive)

CCOC(=O)Nc1ccc(Oc2ccccc2)cc1
IC50 [7]: 15.2 µM (active)
IC50 [8]: > 20 µM (inactive)
EC50 [9]: > 53 µM (inactive)

COC(=O)C(NC(=O)c1ccc(F)cc1)(Nc1ncc(S(=O)(=O)c2ccc([N+](=O)[O-])cc2)s1)C(F)(F)F (configuration not stated)
AC50 (Cytochrome P450 2D6): 31.6 µM (inconclusive)
IC50 [7]: 16.3 µM (active)
IC50 [8]: 14.5 µM (active)
EC50 [9]: > 53 µM (inactive)

O=C(NC1CCCCC1)C(c1ccc(Cl)cc1)N(C(=O)c1cnccn1)c1ccc2c(c1)OCO2 (configuration not stated)
AC50 [10]: 1.95 µM (active)
AC50 [11]: 7.12 µM (active)
EC50 [14]: > 150 µM (inactive)
AC50 [12]: 3.15 µM (active)
AC50 [13]: 2.47 µM (active)
EC50 [15]: > 38 µM (not active)

O=C(Nc1cc(S(=O)(=O)N2CCCCC2)ccc1N1CCCCC1)C1CC1
IC50 [7]: < 0.368 µM (active)
IC50 [8]: > 20 µM (inactive)
EC50 [9]: > 53 µM (inactive)

CCCCN(c1ccc(C(=O)OC)cc1)S(=O)(=O)c1ccccc1
IC50 [7]: < 0.368 µM (active)
IC50 [8]: > 20 µM (inactive)
EC50 [9]: > 53 µM (inactive)

O=C(CCc1ccccc1)NNC(=S)NC(=O)c1ccccc1
AC50 (Cytochrome P450 1A2): 14.1 µM (inconclusive)
EC50 [20]: 19.2 µM (active)
EC50 [21]: 1.27 µM (active)
EC50 [14]: > 150 µM (inactive)
EC50 (Streptococcus): 5.07 µM (active)
IC50 (Leucine aminopeptidase): 41.3 µM (active)
EC50 [22]: 16.4 µM (active)
EC50 [15]: 1.01 µM (active)
